Reference: patent publication US7851443B2, “Combination comprising combretastatin and anticancer agents” (Aventis Pharma SA, priority 2005, dated 2010)

Tests used:
[1] = Toxicity (mortality, weight loss) in tumor-bearing mice; format: in vivo, female C3H/HeN mice
Method: (§1) The animals subjected to the experiment are female C3H/HeN mice which are bilaterally grafted subcutaneously with 30 to 60 mg of a fragment of MA13/C murine mammary adenocarcinoma tumor at day 0. In the case of an early tumor treatment, the implanted animals are distributed randomly in various groups which are or are not (controls) intended to receive the treatment(s). […] Generally, the chemotherapy begins from 3 to 22 days after the graft, according to the type of tumor and the desired tumor size. The animals are observed and weighed every day. A dose which induces a weight loss of 20% or more at the lowest point (average of the group) or a mortality of 10% or more is considered to be toxic. The tumoral activity is evaluated at the highest nontoxic dose.

[2] = tested on: MA13/C murine mammary adenocarcinoma tumor; assay: Antitumor effect on advanced MA13/C murine mammary adenocarcinoma grafted subcutaneously in mice; format: in vivo, female C3H/HeN mice
Method: This efficacy can be quantified, for example by the log10 cell kill, which is determined by the following formula: log10 cell kill=T-C (days)/3.32×Td in which T-C represents the delay in tumor growth, which is the average time, in days, taken by the tumors of the treated group (T) to reach a predetermined value (1 g for example) and for the tumors of the control group (C) to reach the same value, and Td represents the time, in days, necessary for the volume of the tumors in the control group to double. During the exponential phase of tumor growth (T. H. Corbett et al., Cancer, 40, 2660.2680 (1977); F. M. Schabel et al., Cancer Drug Development, Part B, Methods in Cancer Research, 17, 3-51, New York, Academic Press Inc. (1979)). A product is considered to be active if the log10 cell kill is greater than or equal to 0.7.
The efficacy of the combinations of solid tumors can be determined experimentally in the following way:
as §1
The tumors are measured 2 or 3 times a week until the tumor reaches approximately 2 g or until the animal dies, if this occurs before the tumor reaches 2 g. The animals are autopsied when they are sacrificed.
The antitumor activity is determined in accordance with various recorded parameters, such as the dose (mg/kg), the method of administration, the administration time, the toxicity and the log cell kill, which depends on the delay in tumor growth and also on the tumor doubling time.

[3] = Formula (IIa) IV 22.3 mg/kg per administration, days 21, 25, total dose 44.6 mg/kg
[4] = Formula (IIa) IV 36.0 mg/kg per administration, days 21, 25, total dose 72.0 mg/kg
[5] = Formula (IIa) IV 58.0 mg/kg per administration, days 21, 25, total dose 116.0 mg/kg
[6] = Formula (IIa) IV 93.5 mg/kg per administration, days 21, 25, total dose 187.0 mg/kg
[7] = VEGF Trap SC 10.0 mg/kg per administration, days 21, 25, total dose 20.0 mg/kg
[8] = VEGF Trap SC 25.0 mg/kg per administration, days 21, 25, total dose 50.0 mg/kg
[9] = VEGF Trap SC 40.0 mg/kg per administration, days 21, 25, total dose 80.0 mg/kg

COc1ccc(/C=C\c2cc(OC)c(OC)c(OC)c2)cc1NC(=O)C(N)CO (stereo not shown) [Formula (IIa)]
Average weight loss as % per mouse at the lowest point (day of the lowest point) [1, 3]: 0.6 (22) % | Mortality related to the agent (day of death) [1, 3]: 0/5 | Average weight loss as % per mouse at the lowest point (day of the lowest point) [1, 4]: 2.1 (22) % | Mortality related to the agent (day of death) [1, 4]: 0/5 | Average weight loss as % per mouse at the lowest point (day of the lowest point) [1, 5]: 3.8 (22) % | Comments (dose level) [1, 5]: HNTD | Mortality related to the agent (day of death) [1, 5]: 0/5 | Average weight loss as % per mouse at the lowest point (day of the lowest point) [1, 6]: 7.4 (26) % | Comments [1, 6]: Toxic | Mortality related to the agent (day of death) [1, 6]: 1/5 (23) | Comments [2, 3]: Inactive | Log cell kill [2, 3]: 0.4 | Regression Complete [2, 3]: 0/5 | Regression Partial [2, 3]: 0/5 | T-C [2, 3]: 3.4 days | Time to reach tumor size of 1000 mg (median) [2, 3]: 27.2 days | Comments [2, 4]: Inactive | Log cell kill [2, 4]: 0.5 | Regression Complete [2, 4]: 0/5 | Regression Partial [2, 4]: 0/5 | T-C [2, 4]: 4.1 days | Time to reach tumor size of 1000 mg (median) [2, 4]: 27.9 days | Comments [2, 5]: inactive | Log cell kill [2, 5]: 0.6 | Regression Complete [2, 5]: 0/5 | Regression Partial [2, 5]: 0/5 | T-C [2, 5]: 5.1 days | Time to reach tumor size of 1000 mg (median) [2, 5]: 28.9 days

VEGF Trap: fusion protein: VEGFR1 signal sequence, Ig domain D2 of VEGFR1, Ig domain D3 of VEGFR2, IgG1 Fc domain
Average weight loss as % per mouse at the lowest point (day of the lowest point) [1, 7]: 0.4 (23) % | Mortality related to the agent (day of death) [1, 7]: 0/5 | Average weight loss as % per mouse at the lowest point (day of the lowest point) [1, 8]: 1.8 (23) % | Mortality related to the agent (day of death) [1, 8]: 0/5 | Average weight loss as % per mouse at the lowest point (day of the lowest point) [1, 9]: 1.3 (23) % | Mortality related to the agent (day of death) [1, 9]: 0/5 | Comments [2, 7]: Inactive | Log cell kill [2, 7]: 0.1 | Regression Complete [2, 7]: 0/5 | Regression Partial [2, 7]: 0/5 | T-C [2, 7]: 0.4 days | Time to reach tumor size of 1000 mg (median) [2, 7]: 24.2 days | Comments [2, 8]: Inactive | Log cell kill [2, 8]: 0.4 | Regression Complete [2, 8]: 0/5 | Regression Partial [2, 8]: 0/5 | T-C [2, 8]: 2.8 days | Time to reach tumor size of 1000 mg (median) [2, 8]: 26.6 days | Log cell kill [2, 9]: 0.1 | Regression Complete [2, 9]: 0/5 | Regression Partial [2, 9]: 0/5 | T-C [2, 9]: 0.8 days | Time to reach tumor size of 1000 mg (median) [2, 9]: 24.6 days | Comments ([2]; VEGF Trap SC 40.0 mg/kg per administration, days 21, 25, total dose 80.0 mg/kg (MAD)): inactive
